In brackets after ≈: the same amount, converted by molar mass. Where two headings read alike, the source gives them in different places.
Legend:
DB00376 = assay: Antibiotic MIC tests; type: cell-based
DB05646 = assay: Antibiotic MIC tests; type: cell-based, Alcaligenes faecalis; conditions: for MIC: Alcaligenes faecalis
DB02473 = assay: Antibiotic MIC tests; type: cell-based
DB10033 = assay: Antibiotic MIC tests; type: cell-based, Bacillus altitudinis; conditions: for MIC: Bacillus altitudinis
E. coli ATCC 25922 = conditions: MIC; cited from earlier work
[1] = 24 h, read-out: MIC, DB00376 24 hr
[2] = 48 h, read-out: MIC, DB00376 48 hr
[3] = 24 h, read-out: MIC, DB05646 24 hr
[4] = 48 h, read-out: MIC, DB05646 48 hr
[5] = 24 h, read-out: MIC, DB10033 24 hr
[6] = 48 h, read-out: MIC, DB10033 48 hr
[7] = 48 h; read-out: MIC, DB02473 48 hr
[8] = 24 h; read-out: MIC, DB02473 24 hr

Row | Compound | MIC (DB00376; [1]) [µg/mL] | MIC (DB00376; [2]) [µg/mL] | MIC (DB05646; [3]) [µg/mL] | MIC (DB05646; [4]) [µg/mL] | MIC (DB02473; 24 h, read-out: MIC, DB02473 24 hr) [µg/mL] | MIC (DB02473; 48 h, read-out: MIC, DB02473 48 hr) [µg/mL] | MIC (DB10033; [5]) [µg/mL] | MIC (DB10033; [6]) [µg/mL] | MIC, DB00376 24 hr (DB00376) [µg/mL] | MIC, DB00376 48 hr (DB00376) [µg/mL] | MIC, DB05646 24 hr (DB05646) [µg/mL] | MIC, DB05646 48 hr (DB05646) [µg/mL] | MIC, DB02473 24 hr (DB02473; 24 hr) [µg/mL] | MIC, DB02473 48 hr (DB02473; 48 hr) [µg/mL] | MIC, DB10033 24 hr (DB10033) [µg/mL] | MIC, DB10033 48 hr (DB10033) [µg/mL] | MIC (DB02473; [7]) [µg/mL] | MIC (DB02473; [8]) [µg/mL] | E. coli ATCC 25922 CLSI QC Range (E. coli ATCC 25922)
1 | O=C(N[C@H](CO)[C@H](O)c1ccc([N+](=O)[O-])cc1)C(Cl)Cl [Chloramphenicol] | 2 (≈ 6.19 µM) | 8 (≈ 24.8 µM) | 8 (≈ 24.8 µM) | 16 (≈ 49.5 µM) | 4 (≈ 12.4 µM) | 16 (≈ 49.5 µM) | 2 (≈ 6.19 µM) | 4 (≈ 12.4 µM) |  |  |  |  |  |  |  |  |  |  | 
2 | Povidone-iodine |  |  |  |  |  |  |  |  | >1024 | >1024 | >1024 | >1024 | >1024 | >1024 | >1024 | >1024 |  |  | 
3 | CC[C@H]1OC(=O)[C@H](C)[C@@H](O[C@H]2C[C@@](C)(OC)[C@@H](O)[C@H](C)O2)[C@H](C)[C@@H](O[C@@H]2O[C@H](C)C[C@H](N(C)C)[C@H]2O)[C@](C)(O)C[C@@H](C)C(=O)[C@H](C)[C@@H](O)[C@]1(C)O [Erythromycin] | 0.125 (≈ 0.17 µM) | 0.5 (≈ 0.681 µM) | 16 (≈ 21.8 µM) | 64 (≈ 87.2 µM) |  |  | ≤ 0.06 | ≤ 0.06 |  |  |  |  |  |  |  |  | 0.125 (≈ 0.17 µM) |  | 
4 | O=C(O)c1cn(C2CC2)c2cc(N3CCNCC3)c(F)cc2c1=O [Ciprofloxacin] | 0.0625 (≈ 0.189 µM) | 0.5 (≈ 1.51 µM) | 2 (≈ 6.04 µM) | 2 (≈ 6.04 µM) |  |  | 0.125 (≈ 0.377 µM) | 1 (≈ 3.02 µM) |  |  |  |  |  |  |  |  | 0.125 (≈ 0.377 µM) | ≤ 0.06 | 
5 | C[C@H]1COc2c(N3CCN(C)CC3)c(F)cc3c(=O)c(C(=O)O)cn1c23 [Levofloxacin] | ≤ 0.06 | 0.125 (≈ 0.346 µM) | 1 (≈ 2.77 µM) | 1 (≈ 2.77 µM) |  |  | ≤ 0.06 | 0.125 (≈ 0.346 µM) |  |  |  |  |  |  |  |  |  | ≤ 0.06 | 
6 | C[C@@H](O)[C@H]1C(=O)N2C(C(=O)O)=C(S[C@@H]3CN[C@H](C(=O)N(C)C)C3)[C@H](C)[C@H]12 [Meropenem] | ≤ 0.06 | ≤ 0.06 | ≤ 0.06 | ≤ 0.06 |  |  | ≤ 0.06 | 0.125 (≈ 0.326 µM) |  |  |  |  |  |  |  |  | ≤ 0.06 | ≤ 0.06 | 0.008 to 0.06 µg/mL
7 | CC[C@H]1OC(=O)[C@H](C)[C@@H](O[C@H]2C[C@@](C)(OC)[C@@H](O)[C@H](C)O2)[C@H](C)[C@@H](O[C@@H]2O[C@H](C)C[C@H](N(C)C)[C@H]2O)[C@](C)(O)C[C@@H](C)CN(C)[C@H](C)[C@@H](O)[C@]1(C)O [Azithromycin] | 0.25 (≈ 0.334 µM) | 1 (≈ 1.34 µM) | 2 (≈ 2.67 µM) | 2 (≈ 2.67 µM) |  |  | 0.2 (≈ 0.267 µM) | 0.2 (≈ 0.267 µM) |  |  |  |  |  |  |  |  |  | 0.5 (≈ 0.668 µM) | 
8 | [H]/N=C(\N/C(=N/[H])NCCCCCCNC(=N)NC(=N)Nc1ccc(Cl)cc1)Nc1ccc(Cl)cc1 [Chlorhexidine] | 0.5 (≈ 0.989 µM) | 1 (≈ 1.98 µM) | 32 (≈ 63.3 µM) | 32 (≈ 63.3 µM) |  |  | 1 (≈ 1.98 µM) | 2 (≈ 3.96 µM) |  |  |  |  |  |  |  |  |  | 1 (≈ 1.98 µM) | 
9 | CO/N=C(\C(=O)N[C@@H]1C(=O)N2C(C(=O)[O-])=C(C[N+]3(C)CCCC3)CS[C@H]12)c1csc(N)n1 [Cefepime] | 1 (≈ 2.08 µM) | 64 (≈ 133 µM) | 4 (≈ 8.32 µM) | 8 (≈ 16.6 µM) |  |  | 64 (≈ 133 µM) | 64 (≈ 133 µM) |  |  |  |  |  |  |  |  | 4 (≈ 8.32 µM) | 2 (≈ 4.16 µM) | 0.016 to 0.12 µg/mL
10 | NCC[C@H](O)C(=O)N[C@@H]1C[C@H](N)[C@@H](O[C@H]2O[C@H](CN)[C@@H](O)[C@H](O)[C@H]2O)[C@H](O)[C@H]1O[C@H]1O[C@H](CO)[C@@H](O)[C@H](N)[C@H]1O [Amikacin] | 0.5 (≈ 0.854 µM) | 1 (≈ 1.71 µM) | 4 (≈ 6.83 µM) | 4 (≈ 6.83 µM) |  |  | 0.5 (≈ 0.854 µM) | 2 (≈ 3.42 µM) |  |  |  |  |  |  |  |  | 0.25 (≈ 0.427 µM) | 0.25 (≈ 0.427 µM) | 0.5-4^ μg/mL
11 | Neomycin |  |  |  |  |  |  |  |  | 0.125 | 0.25 | 8 | 16 | ≤0.06 | 0.25 | 0.125 | 0.125 |  |  | 
12 | C[C@H]1[C@H](NC(=O)/C(=N\OC(C)(C)C(=O)O)c2csc(N)n2)C(=O)N1S(=O)(=O)O [Aztreonam] | 16 (≈ 36.7 µM) | > 64 | 32 (≈ 73.5 µM) | 32 (≈ 73.5 µM) |  |  | > 64 | > 64 |  |  |  |  |  |  |  |  | > 64 | > 64 | 0.06 to 0.25 µg/mL
13 | CN(C)c1ccc(O)c2c1C[C@H]1C[C@H]3[C@H](N(C)C)C(O)=C(C(N)=O)C(=O)[C@@]3(O)C(O)=C1C2=O [Minocycline] | 0.0625 (≈ 0.137 µM) | 0.25 (≈ 0.546 µM) | 2 (≈ 4.37 µM) | 4 (≈ 8.74 µM) |  |  | 2 (≈ 4.37 µM) | 2 (≈ 4.37 µM) |  |  |  |  |  |  |  |  | 0.5 (≈ 1.09 µM) | 0.125 (≈ 0.273 µM) | 
14 | Amoxicillin/Clavulanate (4:1) |  |  |  |  |  |  |  |  | ≤0.06 | ≤0.06 | 32 | 32 | ≤0.06 | ≤0.06 | ≤0.06 | ≤0.06 |  |  | 
15 | CN(C)[C@@H]1C(O)=C(C(N)=O)C(=O)[C@@]2(O)C(O)=C3C(=O)c4c(O)cccc4[C@@](C)(O)[C@H]3C[C@@H]12 [Tetracycline] | 0.0625 (≈ 0.141 µM) |  | 4 (≈ 9 µM) | 16 (≈ 36 µM) |  |  |  |  |  |  |  |  |  |  |  |  |  |  | 
16 | Polymyxin B |  |  |  |  |  |  |  |  | 8 | 16 | 1 | 1 | 4 | 8 | 8 | 16 |  |  | 0.25 to 2 µg/mL
17 | CCC[C@@H]1C[C@@H](C(=O)N[C@@H]([C@H]2O[C@H](SC)[C@H](O)[C@@H](O)[C@H]2O)[C@H](C)Cl)N(C)C1 [Clindamycin] | 1 (≈ 2.35 µM) | 4 (≈ 9.41 µM) | > 64 | > 64 |  |  | 0.125 (≈ 0.294 µM) | 2 (≈ 4.71 µM) |  |  |  |  |  |  |  |  | 2 (≈ 4.71 µM) | 0.5 (≈ 1.18 µM) | 
18 | C/C(=C\C(=O)OCCCCCCCCC(=O)O)C[C@@H]1OC[C@H](C[C@@H]2O[C@H]2[C@@H](C)[C@H](C)O)[C@@H](O)[C@H]1O [Mupirocin] | 2 (≈ 3.99 µM) | 16 (≈ 32 µM) | 64 (≈ 128 µM) | 128 (≈ 256 µM) |  |  | 8 (≈ 16 µM) | 64 (≈ 128 µM) |  |  |  |  |  |  |  |  | ≤ 1 | ≤ 1 | 
19 | CO/N=C(\C(=O)N[C@@H]1C(=O)N2C(C(=O)O)=C(CSc3nc(=O)c(=O)[nH]n3C)CS[C@H]12)c1csc(N)n1 [Ceftriaxone] | 2 (≈ 3.61 µM) | 4 (≈ 7.21 µM) | 0.25 (≈ 0.451 µM) | 0.25 (≈ 0.451 µM) |  |  | 16 (≈ 28.9 µM) | 16 (≈ 28.9 µM) |  |  |  |  |  |  |  |  | 16 (≈ 28.9 µM) | 4 (≈ 7.21 µM) | 0.03 to 0.12 µg/mL
